Consider 1 compound from patent publication US20240238310A1, “MODULATION OF SEX STEROID HORMONE PRODUCTION AND ACTIVITY FOR TREATING AND PREVENTING HERNIAS” (Northwestern University, priority 2020, published 2024).

The assay deals with T1, ERα (Mus musculus, UniProt P19785).
T1 construct: ERα in LAMT is almost exclusively expressed in fibroblasts; endogenous in cells; host or cells: primary LAMT fibrosis-associated fibroblasts (passage 0) from 4-week-old Arom^hum (FVB/N background) male mice
T1 sequence (P19785 1-599): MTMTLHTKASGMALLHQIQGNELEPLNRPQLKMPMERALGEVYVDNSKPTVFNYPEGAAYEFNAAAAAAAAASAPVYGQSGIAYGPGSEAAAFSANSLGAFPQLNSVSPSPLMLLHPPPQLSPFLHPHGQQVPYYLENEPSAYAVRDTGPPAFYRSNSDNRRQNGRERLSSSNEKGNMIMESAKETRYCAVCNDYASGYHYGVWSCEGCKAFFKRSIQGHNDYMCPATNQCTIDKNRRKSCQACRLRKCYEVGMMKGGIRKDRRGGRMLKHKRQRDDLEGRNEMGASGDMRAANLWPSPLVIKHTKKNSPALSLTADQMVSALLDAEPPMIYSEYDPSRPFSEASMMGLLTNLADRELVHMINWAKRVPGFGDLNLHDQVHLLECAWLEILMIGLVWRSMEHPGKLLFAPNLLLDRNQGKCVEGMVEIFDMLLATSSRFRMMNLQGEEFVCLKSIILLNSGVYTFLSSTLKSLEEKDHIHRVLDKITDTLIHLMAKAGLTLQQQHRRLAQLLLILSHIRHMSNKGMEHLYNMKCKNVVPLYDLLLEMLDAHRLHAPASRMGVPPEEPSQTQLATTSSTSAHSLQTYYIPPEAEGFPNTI
The experiment in a line: ERα ChIP-seq, histone ChIP-seq and RNA-seq in LAMT FAFs treated with E2 or fulvestrant (planned). The assay is classed as cell-based. The note with it: expected result (Aim 1); fulvestrant 10^−7 M, 24 h. The text has this: Early herniation in Arom^hum mice usually become visible around 4 weeks of age (FIG. 5). Thus, we will isolate LAMT transformed FAFs at 4 weeks of age. We routinely culture primary fibroblast cells from LAMT of both WT and Arom^hum mice (FIGS. 6-9). The quantity of FAFs (>10^7 cells/Arom^hum mouse) is sufficient for performing the proposed experiments. Previously, we successfully used two antibodies for ERα ChIP-seq or other genome-wide ChIP approaches^84, 85. We will perform optimization studies (ChIP-western and conventional ChIP) with both antibodies in primary muscle fibroblasts and use the most suitable antibody for ChIP-seq^84. […] Library quality will be assessed using the Agilent 2100 Bioanalyzer. Sequencing will be performed at the Next-Generation Sequencing Core at Northwestern to obtain 30 million single-end 75-bp reads per sample. […]
Experiment 1b2: We will perform RNA-seq at 40 million reads per sample on the 12 LAMT FAF samples treated for 24 h with vehicle, E2 (10^−8M), or fulvestrant (10^-7 M) (n=4 mice/group). […] The RNA-seq data will be evaluated using pathway analysis and gene enrichment strategies with respect to the differentially expressed (DE) transcripts/genes induced by E2 and reversed by fulvestrant.
Bioinformatics analysis for ChIP-seq, RNA-seq, and their integration. […] The differential binding (DB) sites will be detected using csaw^89. […]

As to `C[C@]12CC[C@@H]3c4ccc(O)cc4C[C@@H](CCCCCCCCC[S+]([O-])CCCC(F)(F)C(F)(F)F)[C@H]3[C@@H]1CC[C@@H]2O` (stereo partly shown) [fulvestrant], the “E2-induced ERα binding, histone modification and gene expression profiles in LAMT FAFs” value is “will block or partially reverse E2-induced ERα binding and histone modification, and alter gene expression profiles”.
